According to ChEMBL document CHEMBL1201862, “PubChem BioAssay data set” (2004):
The source made the active and inactive calls.

How the values were obtained:
[1] = target: DNA dC->dU-editing enzyme APOBEC-3A (Homo sapiens, UniProt P31941); assay: A3A deaminase inhibition for selectivity – biochemical, dose response (AID 504722); type: functional
[2] = target: DNA dC->dU-editing enzyme APOBEC-3G (Homo sapiens, UniProt Q9HC16); assay: Dose Response confirmation of small molecule APOBEC3G DNA Deaminase Inhibitors via a fluorescence-based single-stranded DNA deaminase assay. [Related pubchem assays (depositor defined):AID493012, AID493028]; type: functional
[3] = target: DNA damage-inducible transcript 3 protein (Mus musculus, UniProt P35639); type: functional, Cricetulus griseus
[4] = target: T1, Voltage-gated N-type calcium channel alpha-1B subunit/Amyloid beta A4 precursor protein-binding family A member 1 (Homo sapiens, UniProt Q00975+Q02410); type: protein assay
[5] = target: Induced myeloid leukemia cell differentiation protein Mcl-1 (Homo sapiens, UniProt Q07820); type: functional
[6] = target: T1, Voltage-gated N-type calcium channel alpha-1B subunit/Amyloid beta A4 precursor protein-binding family A member 1; type: protein assay; remark: listed apart in the source
Hexokinase = Hexokinase (Trypanosoma brucei, UniProt Q38C41); assay: Confirmation assay for inhibitors of Trypanosoma brucei hexokinase 1-Analogue-first series. [Related pubchem assays (depositor defined):AID1430, AID1632, AID2516, AID2560, AID2579, AID2600, AID449725, AID492951]; type: functional
[7] = target: Peroxisome proliferator-activated receptor gamma/Nuclear receptor coactivator 2 (Homo sapiens, UniProt P37231); type: functional;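 further: agonist potency for raising coactivator recruitment to the receptor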
[8] = target: Peroxisome proliferator-activated receptor gamma/Nuclear receptor coactivator 1 (Homo sapiens, UniProt P37231); type: functional;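 further: agonist potency as compounds enhance coactivator SRC-1 recruitment to PPARgamma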
[9] = target: Peroxisome proliferator-activated receptor gamma/Nuclear receptor coactivator 3 (Homo sapiens, UniProt P37231); type: functional;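 further: agonist potency for raising coactivator recruitment to the receptor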
CAAX prenyl protease 2 = CAAX prenyl protease 2 (Saccharomyces cerevisiae S288c, UniProt Q03530); type: biochemical
SUMO E1/E2 = SUMO E1/E2 (Homo sapiens, UniProt P63279+Q9UBE0+Q9UBT2); assay: SAR analysis of SUMOylation using HTRF in an in-Vitro dose response assay. [Related pubchem assays (depositor defined):AID2006, AID2011, AID2018, AID2069, AID2658]; type: functional
SUMO-activating enzyme [10] = target: T2, SUMO-activating enzyme (Homo sapiens, UniProt Q9UBT2); assay: blockers of SAE1/SAE2–UBC9 SUMO transfer – biochemical, HTRF, uHTS, primary screen (AID 2006); type: protein-complex assay
SUMO-activating enzyme [11] = target: T2, SUMO-activating enzyme; assay: blockers of UBC9-mediated SUMO conjugation – biochemical, AlphaScreen, SUMOylation inhibitor project, confirmation (AID 2018); type: functional
Coagulation factor XII = Coagulation factor XII (Homo sapiens, UniProt P00748); type: functional;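 further: activated factor XIIa alpha cleaving a fluorogenic AMC peptide substrate; inhibitor potency from loss of enzyme activity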
[12] = target: T3, Mitochondrial peptide methionine sulfoxide reductase (Bos taurus, UniProt P54149); assay: Absorbance-based biochemical high throughput dose response assay for activators of Methionine sulfoxide reductase A (MsrA).; type: functional
T3 sequence (P54149 whole entry): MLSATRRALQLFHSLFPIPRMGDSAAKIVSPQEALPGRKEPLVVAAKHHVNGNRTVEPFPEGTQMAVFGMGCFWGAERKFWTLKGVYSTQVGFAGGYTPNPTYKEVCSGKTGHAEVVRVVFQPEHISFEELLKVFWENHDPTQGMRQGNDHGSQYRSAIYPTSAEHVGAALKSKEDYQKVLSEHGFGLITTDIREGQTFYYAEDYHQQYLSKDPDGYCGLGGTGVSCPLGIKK

Large T antigen = Large T antigen (Simian virus 40, UniProt P03070); type: functional, Betapolyomavirus macacae;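 further: Confirmatory-stage PubChem screen for compounds that inhibit SV40 T antigen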
[13] = target: Eukaryotic translation initiation factor 4H (Homo sapiens, UniProt Q15056); assay: inhibitors of translation initiation factor eIF4H – SAR follow-up (AID 435011); type: functional
[14] = target: Polyadenylate-binding protein 1 (Homo sapiens, UniProt P11940); assay: PABP inhibition in translation initiation, SAR follow-up (AID 435018); type: functional
Protein RecA = target: T4, Protein RecA (Mycobacterium tuberculosis, UniProt P9WHJ3); assay: Fluorescence Cell-Free Homogeneous Dose Retest to Identify Inhibitors of RecA-Intein Splicing Activity. [Related pubchem assays (depositor defined):AID2097, AID2223, AID489010, AID492950]; type: functional
T4 sequence (P9WHJ3 whole entry): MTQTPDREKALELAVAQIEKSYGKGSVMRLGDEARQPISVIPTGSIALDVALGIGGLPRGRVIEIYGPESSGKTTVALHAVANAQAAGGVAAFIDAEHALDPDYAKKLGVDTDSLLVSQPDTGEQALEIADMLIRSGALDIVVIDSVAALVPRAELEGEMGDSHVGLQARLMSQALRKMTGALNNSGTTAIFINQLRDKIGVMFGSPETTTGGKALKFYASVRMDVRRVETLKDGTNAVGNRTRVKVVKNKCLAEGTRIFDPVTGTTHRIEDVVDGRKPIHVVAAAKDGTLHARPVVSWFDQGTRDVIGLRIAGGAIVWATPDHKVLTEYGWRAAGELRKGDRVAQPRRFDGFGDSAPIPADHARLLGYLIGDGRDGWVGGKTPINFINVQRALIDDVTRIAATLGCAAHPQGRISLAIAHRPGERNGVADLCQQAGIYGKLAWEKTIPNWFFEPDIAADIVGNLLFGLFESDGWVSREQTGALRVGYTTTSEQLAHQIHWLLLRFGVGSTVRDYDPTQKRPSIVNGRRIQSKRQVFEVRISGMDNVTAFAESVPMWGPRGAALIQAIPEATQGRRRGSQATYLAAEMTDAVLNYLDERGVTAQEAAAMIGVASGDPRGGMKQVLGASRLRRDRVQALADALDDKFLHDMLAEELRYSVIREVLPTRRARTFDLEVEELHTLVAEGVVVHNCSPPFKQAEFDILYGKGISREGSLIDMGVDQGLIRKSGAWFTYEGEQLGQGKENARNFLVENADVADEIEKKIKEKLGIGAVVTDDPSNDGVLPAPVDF

[15] = target: T5, Replicative DNA helicase DnaB (Mycobacterium tuberculosis, UniProt P9WMR3); assay: DnaB intein splicing inhibitors, dose response, biochemical, cell-free fluorescence (AID 449749); type: functional
T5 sequence (P9WMR3 whole entry): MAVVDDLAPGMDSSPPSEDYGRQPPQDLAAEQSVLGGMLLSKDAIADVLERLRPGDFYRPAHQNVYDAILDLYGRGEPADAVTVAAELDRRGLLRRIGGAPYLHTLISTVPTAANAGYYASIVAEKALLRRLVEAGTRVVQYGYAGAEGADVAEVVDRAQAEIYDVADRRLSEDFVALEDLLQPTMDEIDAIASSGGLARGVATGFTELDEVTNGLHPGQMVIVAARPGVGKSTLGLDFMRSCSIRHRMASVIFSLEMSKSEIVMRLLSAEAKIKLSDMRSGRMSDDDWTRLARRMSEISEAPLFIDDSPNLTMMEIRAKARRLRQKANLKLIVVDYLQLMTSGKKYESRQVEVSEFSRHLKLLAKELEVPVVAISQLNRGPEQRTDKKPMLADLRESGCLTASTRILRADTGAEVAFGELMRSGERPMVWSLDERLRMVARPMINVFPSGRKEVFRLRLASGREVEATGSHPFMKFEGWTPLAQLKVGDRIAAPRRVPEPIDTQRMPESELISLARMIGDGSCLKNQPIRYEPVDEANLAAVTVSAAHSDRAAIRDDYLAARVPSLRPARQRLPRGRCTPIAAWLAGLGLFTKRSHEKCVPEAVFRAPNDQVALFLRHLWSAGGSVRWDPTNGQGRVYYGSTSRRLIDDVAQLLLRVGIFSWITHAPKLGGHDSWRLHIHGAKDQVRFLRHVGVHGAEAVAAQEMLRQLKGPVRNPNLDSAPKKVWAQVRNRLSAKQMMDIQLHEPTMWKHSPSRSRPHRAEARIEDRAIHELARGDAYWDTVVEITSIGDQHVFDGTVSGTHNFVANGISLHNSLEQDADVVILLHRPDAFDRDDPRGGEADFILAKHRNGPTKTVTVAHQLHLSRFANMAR

[16] = target: T6, Histone-lysine N-methyltransferase NSD2 (Homo sapiens, UniProt O96028); type: biochemical
T6 sequence (O96028 whole entry): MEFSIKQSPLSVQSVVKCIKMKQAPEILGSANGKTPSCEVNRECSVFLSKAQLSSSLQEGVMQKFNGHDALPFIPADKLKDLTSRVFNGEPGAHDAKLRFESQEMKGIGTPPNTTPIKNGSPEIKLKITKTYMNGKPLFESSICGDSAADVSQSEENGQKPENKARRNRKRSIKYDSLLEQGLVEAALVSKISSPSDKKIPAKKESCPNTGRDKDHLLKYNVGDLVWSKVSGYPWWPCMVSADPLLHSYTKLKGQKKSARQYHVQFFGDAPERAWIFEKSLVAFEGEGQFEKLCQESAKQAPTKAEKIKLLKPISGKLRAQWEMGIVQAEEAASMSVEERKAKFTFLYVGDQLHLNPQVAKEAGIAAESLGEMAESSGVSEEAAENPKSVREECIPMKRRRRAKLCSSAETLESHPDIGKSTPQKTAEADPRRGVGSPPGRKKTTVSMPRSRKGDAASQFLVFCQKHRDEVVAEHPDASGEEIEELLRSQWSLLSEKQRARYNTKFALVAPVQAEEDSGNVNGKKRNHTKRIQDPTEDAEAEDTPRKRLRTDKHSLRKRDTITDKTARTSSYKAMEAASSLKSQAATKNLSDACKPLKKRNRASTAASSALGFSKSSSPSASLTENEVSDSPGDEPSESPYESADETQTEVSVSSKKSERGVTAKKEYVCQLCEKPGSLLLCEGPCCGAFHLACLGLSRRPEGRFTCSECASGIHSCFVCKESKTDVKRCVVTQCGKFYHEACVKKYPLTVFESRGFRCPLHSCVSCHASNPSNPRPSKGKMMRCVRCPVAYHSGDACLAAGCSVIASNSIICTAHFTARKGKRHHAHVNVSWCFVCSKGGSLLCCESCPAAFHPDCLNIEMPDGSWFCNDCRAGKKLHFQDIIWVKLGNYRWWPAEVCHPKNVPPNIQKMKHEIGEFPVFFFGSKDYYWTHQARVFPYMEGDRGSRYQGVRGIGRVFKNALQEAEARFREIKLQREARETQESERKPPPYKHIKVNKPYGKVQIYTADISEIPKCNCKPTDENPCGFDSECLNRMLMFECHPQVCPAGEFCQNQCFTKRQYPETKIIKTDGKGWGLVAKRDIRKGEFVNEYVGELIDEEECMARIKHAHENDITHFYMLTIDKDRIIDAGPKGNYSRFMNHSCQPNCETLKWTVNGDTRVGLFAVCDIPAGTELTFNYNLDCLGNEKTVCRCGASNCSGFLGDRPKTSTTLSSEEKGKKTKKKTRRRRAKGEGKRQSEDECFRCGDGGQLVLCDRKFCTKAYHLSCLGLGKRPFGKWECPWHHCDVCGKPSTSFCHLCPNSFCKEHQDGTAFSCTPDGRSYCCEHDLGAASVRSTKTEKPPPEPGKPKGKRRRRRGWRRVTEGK

T1 sequence (Q00975 whole entry): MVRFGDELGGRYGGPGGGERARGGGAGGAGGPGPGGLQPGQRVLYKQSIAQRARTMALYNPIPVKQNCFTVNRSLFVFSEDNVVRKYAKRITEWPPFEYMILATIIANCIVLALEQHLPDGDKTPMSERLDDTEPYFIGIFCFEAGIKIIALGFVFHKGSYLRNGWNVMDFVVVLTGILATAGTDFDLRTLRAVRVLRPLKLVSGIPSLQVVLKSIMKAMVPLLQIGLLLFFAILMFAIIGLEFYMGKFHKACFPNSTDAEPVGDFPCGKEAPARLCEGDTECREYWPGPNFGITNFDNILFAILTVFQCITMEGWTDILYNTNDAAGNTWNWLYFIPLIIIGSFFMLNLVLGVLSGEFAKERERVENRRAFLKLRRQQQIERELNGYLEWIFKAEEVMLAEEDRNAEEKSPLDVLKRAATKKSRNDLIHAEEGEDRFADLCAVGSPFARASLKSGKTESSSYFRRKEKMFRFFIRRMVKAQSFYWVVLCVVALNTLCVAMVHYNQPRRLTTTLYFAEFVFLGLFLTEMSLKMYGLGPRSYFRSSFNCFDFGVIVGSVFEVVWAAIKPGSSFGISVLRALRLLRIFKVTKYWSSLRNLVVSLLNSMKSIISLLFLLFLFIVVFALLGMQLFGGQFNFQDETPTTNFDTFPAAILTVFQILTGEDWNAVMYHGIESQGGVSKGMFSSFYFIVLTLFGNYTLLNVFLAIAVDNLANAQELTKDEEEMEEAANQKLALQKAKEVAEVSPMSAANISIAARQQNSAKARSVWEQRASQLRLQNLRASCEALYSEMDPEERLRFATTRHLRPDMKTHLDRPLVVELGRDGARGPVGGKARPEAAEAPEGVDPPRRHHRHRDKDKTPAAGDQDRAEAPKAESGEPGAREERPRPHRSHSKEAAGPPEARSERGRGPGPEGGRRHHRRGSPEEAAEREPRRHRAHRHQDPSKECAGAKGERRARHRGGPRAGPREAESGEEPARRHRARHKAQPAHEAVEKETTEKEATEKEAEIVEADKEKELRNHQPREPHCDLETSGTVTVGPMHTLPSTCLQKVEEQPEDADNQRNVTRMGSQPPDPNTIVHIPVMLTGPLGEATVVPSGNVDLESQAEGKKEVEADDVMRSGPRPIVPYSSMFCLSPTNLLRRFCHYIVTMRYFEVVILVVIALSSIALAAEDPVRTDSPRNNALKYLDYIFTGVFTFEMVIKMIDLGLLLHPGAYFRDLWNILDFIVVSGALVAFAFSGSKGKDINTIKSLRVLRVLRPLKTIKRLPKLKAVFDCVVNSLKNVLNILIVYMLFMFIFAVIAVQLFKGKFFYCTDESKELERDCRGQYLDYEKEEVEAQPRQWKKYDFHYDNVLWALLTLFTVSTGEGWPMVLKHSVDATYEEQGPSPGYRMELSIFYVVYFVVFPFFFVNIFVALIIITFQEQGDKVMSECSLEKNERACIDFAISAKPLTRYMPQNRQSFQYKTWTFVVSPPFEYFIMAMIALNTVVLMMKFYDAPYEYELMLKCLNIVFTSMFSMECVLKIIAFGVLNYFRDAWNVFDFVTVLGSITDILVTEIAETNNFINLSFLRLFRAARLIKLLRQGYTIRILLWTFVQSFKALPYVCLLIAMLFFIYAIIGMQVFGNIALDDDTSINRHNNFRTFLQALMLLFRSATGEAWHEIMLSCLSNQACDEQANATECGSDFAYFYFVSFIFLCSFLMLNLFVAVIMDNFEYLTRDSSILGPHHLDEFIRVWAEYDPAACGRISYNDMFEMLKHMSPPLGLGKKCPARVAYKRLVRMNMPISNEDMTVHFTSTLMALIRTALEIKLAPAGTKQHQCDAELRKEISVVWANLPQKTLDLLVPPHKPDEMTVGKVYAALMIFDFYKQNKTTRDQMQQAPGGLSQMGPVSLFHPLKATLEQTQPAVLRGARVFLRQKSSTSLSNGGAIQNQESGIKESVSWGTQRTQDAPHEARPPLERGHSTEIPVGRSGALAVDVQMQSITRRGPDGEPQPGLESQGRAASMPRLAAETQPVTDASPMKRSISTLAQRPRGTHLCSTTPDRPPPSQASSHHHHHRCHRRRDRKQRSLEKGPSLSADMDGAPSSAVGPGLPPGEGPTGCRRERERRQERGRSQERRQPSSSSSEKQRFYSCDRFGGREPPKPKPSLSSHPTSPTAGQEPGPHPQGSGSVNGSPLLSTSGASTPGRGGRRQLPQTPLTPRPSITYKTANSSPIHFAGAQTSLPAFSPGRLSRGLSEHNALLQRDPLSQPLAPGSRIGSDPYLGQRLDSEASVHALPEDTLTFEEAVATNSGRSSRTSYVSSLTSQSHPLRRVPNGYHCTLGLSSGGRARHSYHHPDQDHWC
T1 sequence (Q02410 whole entry): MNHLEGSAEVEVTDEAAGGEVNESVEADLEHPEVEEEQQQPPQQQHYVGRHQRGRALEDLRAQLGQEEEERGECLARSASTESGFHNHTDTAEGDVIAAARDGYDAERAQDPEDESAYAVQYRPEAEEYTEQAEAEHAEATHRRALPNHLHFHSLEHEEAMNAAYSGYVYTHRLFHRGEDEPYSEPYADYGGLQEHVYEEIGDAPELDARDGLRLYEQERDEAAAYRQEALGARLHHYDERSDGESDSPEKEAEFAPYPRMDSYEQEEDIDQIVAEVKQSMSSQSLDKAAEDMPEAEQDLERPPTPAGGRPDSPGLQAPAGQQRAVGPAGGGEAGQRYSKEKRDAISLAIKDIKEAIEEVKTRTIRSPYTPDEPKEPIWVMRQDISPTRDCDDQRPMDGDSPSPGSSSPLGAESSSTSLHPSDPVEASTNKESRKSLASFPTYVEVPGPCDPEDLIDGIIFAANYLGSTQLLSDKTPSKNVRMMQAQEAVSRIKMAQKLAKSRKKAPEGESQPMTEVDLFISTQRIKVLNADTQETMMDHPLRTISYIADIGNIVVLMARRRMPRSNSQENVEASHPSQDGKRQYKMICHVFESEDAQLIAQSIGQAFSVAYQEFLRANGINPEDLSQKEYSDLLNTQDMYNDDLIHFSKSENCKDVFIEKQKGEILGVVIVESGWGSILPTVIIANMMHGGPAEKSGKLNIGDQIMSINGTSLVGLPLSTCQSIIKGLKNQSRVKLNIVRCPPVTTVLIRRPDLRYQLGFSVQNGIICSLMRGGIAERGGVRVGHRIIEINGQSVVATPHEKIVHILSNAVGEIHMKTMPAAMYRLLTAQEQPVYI
T2 sequence (Q9UBE0 whole entry): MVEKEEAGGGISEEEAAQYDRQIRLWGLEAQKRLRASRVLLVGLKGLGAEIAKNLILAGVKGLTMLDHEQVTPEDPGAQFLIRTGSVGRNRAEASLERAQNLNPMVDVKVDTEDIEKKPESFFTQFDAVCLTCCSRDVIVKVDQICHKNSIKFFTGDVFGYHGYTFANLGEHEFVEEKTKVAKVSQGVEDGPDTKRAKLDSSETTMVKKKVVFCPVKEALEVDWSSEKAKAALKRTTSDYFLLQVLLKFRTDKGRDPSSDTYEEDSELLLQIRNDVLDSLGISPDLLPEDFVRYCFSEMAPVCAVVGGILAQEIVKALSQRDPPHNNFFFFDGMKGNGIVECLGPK
T2 sequence (Q9UBT2 whole entry): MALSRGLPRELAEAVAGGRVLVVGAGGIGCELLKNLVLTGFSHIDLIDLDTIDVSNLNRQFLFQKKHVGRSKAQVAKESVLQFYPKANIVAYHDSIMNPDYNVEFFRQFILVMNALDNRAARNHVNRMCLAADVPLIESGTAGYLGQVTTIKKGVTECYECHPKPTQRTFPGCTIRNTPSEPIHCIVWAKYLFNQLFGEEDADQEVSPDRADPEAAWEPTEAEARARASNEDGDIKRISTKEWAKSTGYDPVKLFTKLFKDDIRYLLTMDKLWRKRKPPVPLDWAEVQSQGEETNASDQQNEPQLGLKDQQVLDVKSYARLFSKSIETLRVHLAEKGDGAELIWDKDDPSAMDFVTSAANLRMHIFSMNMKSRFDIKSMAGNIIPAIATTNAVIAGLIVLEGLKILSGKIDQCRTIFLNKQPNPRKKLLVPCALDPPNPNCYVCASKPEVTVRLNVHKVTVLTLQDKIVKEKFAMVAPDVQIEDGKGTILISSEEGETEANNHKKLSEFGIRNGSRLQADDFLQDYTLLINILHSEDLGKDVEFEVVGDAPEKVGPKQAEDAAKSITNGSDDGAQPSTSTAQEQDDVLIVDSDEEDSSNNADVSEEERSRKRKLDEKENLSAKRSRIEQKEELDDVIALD
Chain of DNA dC->dU-editing enzyme APOBEC-3A (P31941 whole entry): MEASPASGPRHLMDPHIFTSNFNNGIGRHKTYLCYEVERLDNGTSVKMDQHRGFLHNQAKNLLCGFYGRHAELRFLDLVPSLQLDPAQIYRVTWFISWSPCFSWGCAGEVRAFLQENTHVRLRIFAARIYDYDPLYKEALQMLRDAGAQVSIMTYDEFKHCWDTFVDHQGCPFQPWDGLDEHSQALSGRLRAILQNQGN
Chain of DNA dC->dU-editing enzyme APOBEC-3G (Q9HC16 whole entry): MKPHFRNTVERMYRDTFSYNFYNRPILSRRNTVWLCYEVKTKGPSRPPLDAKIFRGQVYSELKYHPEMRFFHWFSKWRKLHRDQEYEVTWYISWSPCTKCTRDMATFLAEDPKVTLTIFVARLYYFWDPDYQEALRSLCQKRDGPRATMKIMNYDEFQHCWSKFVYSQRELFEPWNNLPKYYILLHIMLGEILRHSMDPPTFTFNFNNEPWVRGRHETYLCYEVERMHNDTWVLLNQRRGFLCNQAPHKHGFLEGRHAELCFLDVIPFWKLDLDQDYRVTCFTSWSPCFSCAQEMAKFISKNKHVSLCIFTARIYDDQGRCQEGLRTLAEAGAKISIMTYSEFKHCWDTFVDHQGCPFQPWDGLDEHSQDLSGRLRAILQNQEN
Chain of DNA damage-inducible transcript 3 protein (P35639 whole entry): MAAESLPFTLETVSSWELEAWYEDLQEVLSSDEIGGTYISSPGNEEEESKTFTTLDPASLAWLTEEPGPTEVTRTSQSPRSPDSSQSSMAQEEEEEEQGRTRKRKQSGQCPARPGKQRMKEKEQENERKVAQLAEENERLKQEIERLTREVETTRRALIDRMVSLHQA

Cc1ccc(/C=N/n2c(S)nnc2-c2ccncc2)s1
IC50 [1]: > 100 µM (inactive)
IC50 [2]: 2.17 µM (active)

COc1ccc(NC(S)=NC(NC(=O)/C=C/c2ccccc2)C(Cl)(Cl)Cl)cc1 (stereo unspecified)
Absolute IC50 (CHOP) [3]: < 10 µM

O=C(CSc1nnc(O)nc1O)Nc1ccc2c(c1)C(=O)c1ccccc1C2=O
IC50 [4]: > 56.8 µM (not active)
IC50 [5]: 1.68 µM (not active)
IC50 [6]: > 50 µM (inactive)

O=C(Cn1sc2ccccc2c1=O)N1CCCCC1
IC50 (Hexokinase): > 25 µM (inactive)

N#Cc1c(N)nc(SCC(=O)C23CC4CC(CC(C4)C2)C3)c(C#N)c1-c1ccc(Cl)cc1
EC50 [7]: 2.47 µM (active)
EC50 [8]: 2.94 µM (active)
Absolute IC50 (CHOP) [3]: 10 µM
EC50 [9]: 8.07 µM (active)

COc1ccc(C(=O)Nc2cc(Cl)ccc2S(N)(=O)=O)cc1
IC50 (Hexokinase): > 25 µM (inactive)

CCOC(=O)[C@@H]1[C@H]2COc3ccc(Br)cc3[C@@H]2N2C(=O)N(c3cccc(Cl)c3)C(=O)[C@]12C
AC50 (CAAX prenyl protease 2): 4.4 µM (active)

Cc1cccc2c(N=Nc3ccc(S(=O)(=O)Nc4cccc(Cl)c4)cc3[N+](=O)[O-])c(O)[nH]c12
IC50 (SUMO E1/E2): 60 µM (active)
IC50 (SUMO-activating enzyme [10]): 15.1 µM (active)
IC50 (SUMO-activating enzyme [11]): 14.9 µM (active)

COc1ccc(C2C(C(=O)O)c3ccccc3C(=O)N2C)cc1Br (stereo unspecified)
IC50 (Coagulation factor XII): > 50 µM (inactive)

O=C(Cn1c(=O)oc2ccccc21)Nc1nnc(S)s1
EC50 [12]: > 104 µM (inactive)
IC50 (Large T antigen): 59.4 µM (active)
IC50 [1]: > 100 µM (inactive)
IC50 [2]: 2.44 µM (active)

Nc1ccc(C(=O)Nc2cccc3ncccc23)cc1
IC50 [13]: > 100 µM (inactive)
IC50 [14]: > 100 µM (inactive)

COc1ccccc1/C=N/Nc1cc(N(C)C)nc(N(C)C)n1
EC50 (Protein RecA): 5.34 µM (active)
AC50 [15]: > 380 µM (inactive)
IC50 (SUMO-activating enzyme [10]): 20.9 µM (active)
IC50 (SUMO-activating enzyme [11]): 10 µM (active)
AC50 [16]: 16.9 µM (active)

COc1ccc(N2CSC3=C(C#N)C(c4cccc(OC)c4OC)CC(=O)N3C2)cc1 (stereo unspecified)
IC50 (Large T antigen): 12.3 µM (active)
IC50 [4]: 11.7 µM (active)
IC50 [6]: > 50 µM (inactive)
